From patent US5281264A, “Salt-forming type dye and ink composition” (Orient Chemical Industries, Ltd., priority 1992, dated 1994)

Assay: Visible absorption of salt-forming type dyes (λmax)
Format: physicochemical
Conditions: spectra of dyes 1 and 4 in methanol solvent
Protocol: A structure of the dye is shown in the following formula, and hue and maximum absorption wavelength (λmax) are shown in Table. 1.
A structure of each salt-forming type dye is shown in the following formula, respectively. 1. [drawing 5]
Rhodamine 6 GCP (C.I. Basic Red) (140 parts, 0.3 mols) as a cation component was dissolved in water with stirring to prepare a 3% aqueous solution, which was then filtered. Thereafter, this solution (pH 2 to 4) was added dropwise to the dyestuff solution over 50 minutes, followed by stirring at 40° to 50° C. for 3 hours. The solution was heated to 65° C. to form a grit, followed by filtration, rinsing and further drying to obtain 200 parts of a powdered red salt-forming type dye (dye 4) having a structure of the following formula. It was confirmed that the resulting dye is a salt-forming type dye having n (2<n<3). 1. [drawing 6]
It was confirmed that the resulting dye has a structure of the following formula. 1. [drawing 7]
It was confirmed that the resulting dye has a structure of the following formula. 1. [drawing 8]

**Q.** Which “Salt-forming type dye λmax (maximum absorption wavelength)” value (“Salt-forming type dye λmax” for short) (listed as Comp. Ex. 1) does the source give for `Cc1nn(-c2ccccc2)c(O)c1N=Nc1ccc(-c2ccc(N=Nc3c(C)nn(-c4ccccc4)c3O)cc2S(=O)(=O)O)c(S(=O)(=O)O)c1` [dye 7] here?
**A.** 422 nm

**Q.** With `Cc1nn(-c2ccccc2)c(O)c1N=Nc1ccc(-c2ccc(N=Nc3c(C)nn(-c4ccccc4)c3O)cc2S(=O)(=O)O)c(S(=O)(=O)O)c1` [dye 8] as the molecule, how does the “Salt-forming type dye λmax” value (listed as Comp. Ex. 2) read?
**A.** 422 nm

**Q.** For `Cc1nn(-c2ccccc2)c(O)c1N=Nc1ccc(-c2ccc(N=Nc3c(C)nn(-c4ccccc4)c3O)cc2S(=O)(=O)O)c(S(=O)(=O)O)c1` [dye 9], which “Salt-forming type dye λmax” value (listed as Comp. Ex. 3) is on record?
**A.** 525 nm

**Q.** For `Cc1nn(-c2ccccc2)c(O)c1N=Nc1ccc(-c2ccc(N=Nc3c(C)nn(-c4ccccc4)c3O)cc2S(=O)(=O)O)c(S(=O)(=O)O)c1` [dye 10], which “Salt-forming type dye λmax” value (listed as Comp. Ex. 4) is on record?
**A.** 578 nm
